In article PMC12024264, “Frog Skin Peptides Hylin-a1, AR-23, and RV-23: Promising Tools Against Carbapenem-Resistant Escherichia coli and Klebsiella pneumoniae Infections” (Antibiotics, 2025):
Values after ≈ are worked out from the molar mass of the structure shown. Like-named read-outs stand apart in the source and are kept apart here.

How the values were obtained:
Assay in all cases: Antibiotic resistance profile of clinical isolate (Table S1)
[1] = test system: K. pneumoniae 311; format: cell-based, Klebsiella pneumoniae; details: for MIC: Klebsiella pneumoniae
Method: (§1) Each strain was grown in Mueller Hinton Broth (MH Broth), and 5 × 10^5 CFU/mL was used to evaluate antibacterial activity. Clinical carbapenem-resistant K. pneumoniae and E. coli isolates were collected at the AOU of Virology and Microbiology of the University of Campania “Luigi Vanvitelli”. […]
(§2) Table S1. Antibiotic resistance profile of K. pneumoniae and E. coli clinical isolates . MIC: Minimum Inhibitory
(§3) Concentration was expressed in µg/mL; S: Sensible; I: Intermediate; R: Resistant.
(§4) Antibiotic Resistance Profile of the Clinical Isolated Bacteria
(§5) Antibiotics MIC (µg/mL) Interpretation […]

[2] = test system: K. pneumoniae 1746; format: cell-based, Klebsiella pneumoniae
Method: as §1, §2, §3, §4, §5

[3] = test system: K. pneumoniae 1745; format: cell-based, Klebsiella pneumoniae; details: for MIC: Klebsiella pneumoniae
Method: as §1, §2, §3, §4, §5

[4] = test system: K. pneumoniae 1711; format: cell-based, Klebsiella pneumoniae; details: for MIC: Klebsiella pneumoniae
Method: as §1, §2, §3, §4, §5

[5] = test system: E. coli 3140; format: cell-based, Escherichia coli; details: for MIC: Escherichia coli
Method: as §1, §2, §3, §4, §5

[6] = test system: E. coli 716; format: cell-based, Escherichia coli; details: for MIC: Escherichia coli
Method: as §1, §2, §3, §4, §5

[7] = test system: E. coli 1376; format: cell-based, Escherichia coli; details: for MIC: Escherichia coli
Method: as §1, §2, §3, §4, §5

[8] = test system: E. coli 1441; format: cell-based, Escherichia coli; details: for MIC: Escherichia coli
Method: as §1, §2, §3, §4, §5

[9] = test system: E. coli 2267; format: cell-based, Escherichia coli; details: for MIC: Escherichia coli
Method: as §1, §2, §3, §4, §5

[10] = Table S1, K. pneumoniae 1745, read-out: MIC
[11] = Table S1, K. pneumoniae 1711, read-out: MIC
[12] = Table S1, E. coli 2267, read-out: MIC

| Compound | MIC [1]; 311 [µg/mL] | Interpretation ([1]; Table S1, K. pneumoniae 311) | MIC ([2]; Klebsiella pneumoniae, 1746) [µg/mL] | Interpretation ([2]; Table S1, K. pneumoniae 1746) | MIC [3, 10] [µg/mL] | Interpretation ([3]; Table S1, K. pneumoniae 1745) | MIC [4, 11] [µg/mL] | Interpretation ([4]; Table S1, K. pneumoniae 1711) | MIC [5]; 3140 [µg/mL] | Interpretation ([5]; Table S1, E. coli 3140) | MIC [6]; 716 [µg/mL] | Interpretation ([6]; Table S1, E. coli 716) | MIC [7]; 1376 [µg/mL] | Interpretation ([7]; Table S1, E. coli 1376) | MIC [8]; 1441 [µg/mL] | Interpretation ([8]; Table S1, E. coli 1441) | MIC [9, 12] [µg/mL] | Interpretation ([9]; Table S1, E. coli 2267) | further results |
| --- | --- | --- | --- | --- | --- | --- | --- | --- | --- | --- | --- | --- | --- | --- | --- | --- | --- | --- | --- |
| NCC[C@H](O)C(=O)N[C@@H]1C[C@H](N)[C@@H](O[C@H]2O[C@H](CN)[C@@H](O)[C@H](O)[C@H]2O)[C@H](O)[C@H]1O[C@H]1O[C@H](CO)[C@@H](O)[C@H](N)[C@H]1O [Amikacin] | ≤ 4 | S | ≤ 4 | S | 8 (≈ 13.7 µM) | S | ≤ 4 | S | ≤ 4 | S | ≤ 4 | S | > 16 | R | ≤ 4 | S | ≤ 4 | S | – |
| CC1(C)S[C@@H]2[C@H](NC(=O)[C@H](N)c3ccccc3)C(=O)N2[C@H]1C(=O)O [Ampicillin] | > 8 | R | > 8 | R | – | R | – | R | > 8 | R | > 8 | R | > 8 | R | > 8 | R | – | R | MIC [3]; 1745: > 8 µg/mL; MIC [4]; 1711: > 8 µg/mL; MIC [9]; 2267: > 8 µg/mL |
| C[C@H]1[C@H](NC(=O)/C(=N\OC(C)(C)C(=O)O)c2csc(N)n2)C(=O)N1S(=O)(=O)O [Aztreonam] | – | – | – | – | – | R | – | R | – | – | – | – | – | – | – | – | – | R | – |
| CO/N=C(\C(=O)N[C@@H]1C(=O)N2C(C(=O)[O-])=C(C[N+]3(C)CCCC3)CS[C@H]12)c1csc(N)n1 [Cefepime] | – | – | – | – | – | R | – | R | – | – | – | – | – | – | – | – | – | R | – |
| CC(C)(O/N=C(\C(=O)N[C@@H]1C(=O)N2C(C(=O)[O-])=C(C[N+]3(CCNC(=O)c4ccc(O)c(O)c4Cl)CCCC3)CS[C@H]12)c1csc(N)n1)C(=O)O [Cefiderocol] | – | – | – | S | – | – | – | I | – | – | – | – | – | – | – | – | – | – | – |
| CC(C)(O/N=C(\C(=O)N[C@@H]1C(=O)N2C(C(=O)[O-])=C(C[n+]3ccccc3)CS[C@H]12)c1csc(N)n1)C(=O)O [Ceftazidime] | > 16 | R | > 16 | R | > 16 | R | > 16 | R | 16 (≈ 29.3 µM) | R | > 16 | R | > 16 | R | > 16 | R | > 16 | R | – |
| CO/N=C(\C(=O)N[C@@H]1C(=O)N2C(C(=O)O)=C(CSc3nc(=O)c(=O)[nH]n3C)CS[C@H]12)c1csc(N)n1 [Ceftriaxone] | > 4 | R | > 4 | R | > 4 | R | > 4 | R | ≤ 0.5 | S | > 4 | R | > 4 | R | > 4 | R | > 4 | R | – |
| CO/N=C(\C(=O)N[C@@H]1C(=O)N2C(C(=O)O)=C(COC(N)=O)CS[C@H]12)c1ccco1 [Cefuroxime] | > 8 | R | – | – | > 8 | R | > 8 | R | > 8 | R | > 8 | R | > 8 | R | > 8 | R | > 8 | R | – |
| C[C@@H](O)[C@H]1C(=O)N2C(C(=O)O)=C(S[C@@H]3CN[C@H](C(=O)Nc4cccc(C(=O)O)c4)C3)[C@H](C)[C@H]12 [Ertapenem] | > 1 | R | > 1 | R | > 1 | R | > 1 | R | > 1 | R | > 1 | R | > 1 | R | > 1 | R | > 1 | R | – |
| C[C@@H]1O[C@@H]1P(=O)(O)O [Fosfomycin] | ≤ 16 | S | ≤ 16 | S | ≤ 16 | S | 32 (≈ 232 µM) | S | – | – | ≤ 16 | S | > 64 | R | ≤ 16 | S | ≤ 16 | S | – |
| CNC(C)C1CCC(N)C(OC2C(N)CC(N)C(OC3OCC(C)(O)C(NC)C3O)C2O)O1 (stereo not shown) [Gentamicin] | > 4 | R | 2 (≈ 4.19 µM) | S | – | R | – | R | ≤ 1 | S | ≤ 1 | S | > 4 | R | ≤ 1 | S | – | S | MIC [3]; 1745: > 4 µg/mL; MIC [4]; 1711: > 4 µg/mL; MIC [9]; 2267: ≤ 1 µg/mL |
| C[C@@H](O)[C@H]1C(=O)N2C(C(=O)O)=C(SCCN=CN)C[C@H]12 [Imipenem] | 2 (≈ 6.68 µM) | S | 4 (≈ 13.4 µM) | I | > 8 | R | > 8 | R | 2 (≈ 6.68 µM) | S | > 8 | R | > 8 | R | 4 (≈ 13.4 µM) | I | > 8 | R | – |
| C[C@H]1COc2c(N3CCN(C)CC3)c(F)cc3c(=O)c(C(=O)O)cn1c23 [Levofloxacin] | > 1 | R | 1 (≈ 2.77 µM) | I | > 1 | R | > 1 | R | ≤ 0.25 | S | > 1 | R | > 1 | R | ≤ 0.25 | S | > 1 | R | – |
| O=C1CN(/N=C/c2ccc([N+](=O)[O-])o2)C(=O)N1 [Nitrofurantoin] | – | – | – | – | – | – | – | – | ≤ 16 | S | – | – | – | – | – | – | – | – | – |
| CCn1cc(C(=O)O)c(=O)c2cc(F)c(N3CCNCC3)cc21 [Norfloxacin] | – | – | – | – | – | – | – | – | ≤ 0.5 | S | – | – | – | – | – | – | – | – | – |
| CO[C@@]1(NC(=O)C(C(=O)O)c2ccsc2)C(=O)N2[C@@H](C(=O)O)C(C)(C)S[C@@H]21 (stereo partly shown) [Temocillin] | – | R | – | – | > 32 | R | > 32 | R | – | R | – | R | – | R | – | S | > 32 | R | MIC ([1]; Table S1, K. pneumoniae 311, read-out: MIC): > 32 µg/mL; MIC ([5]; Table S1, E. coli 3140, read-out: MIC): > 32 µg/mL; MIC ([6]; Table S1, E. coli 716, read-out: MIC): > 32 µg/mL; MIC ([7]; Table S1, E. coli 1376, read-out: MIC): > 32 µg/mL; MIC ([8]; Table S1, E. coli 1441, read-out: MIC): 8 µg/mL (≈ 19.3 µM) |
| CN(C)c1cc(NC(=O)CNC(C)(C)C)c(O)c2c1C[C@H]1C[C@H]3[C@H](N(C)C)C(O)=C(C(N)=O)C(=O)[C@@]3(O)C(O)=C1C2=O [Tigecycline] | – | – | – | – | – | – | – | – | – | – | > 2 | R | ≤ 0.5 | S | ≤ 0.5 | S | > 2 | R | – |
| Colistin | – | – | – | S | – | – | – | – | – | – | – | – | – | – | – | – | – | – | MIC ([2]; Table S1, K. pneumoniae 1746): 0.25 µg/mL |
